For data set [1] the following is noted: disulfide bond, DMSO/TFA, H2O/DMSO/TFA 75:25:0.1.
In data set [2] the target is T1, recombinant human thymidylate synthase (hTS) (Homo sapiens, UniProt P04818).
T1 construct: made in house
Briefly: hTS inhibition assay (spectrophotometric, absorbance at 340 nm). Type of data set: biochemical. The following applies: for % inhibition of hTS: at 500 µM and r.t. As for the experimental part:
hTS was purified as previously reported. The enzyme solution was thawed the day of the experiment and the enzyme concentration was determined by UV−Vis spectroscopy (Varian Cary 100, Agilent, Santa Clara, CA, USA) using ε280 = 89000 M^−1 cm^−1 and Mr = 74 229. The thawed protein solution was kept constantly at 4 °C. In this condition, the enzyme was able to reproduce normal kinetic activity values (KM dUMP = 10−12 μM, KM mTHF = 4−6 μM, kcat = 0.8−0.9 s^−1). The peptide solution was mixed or vortexed in order to help solubilization; the precise concentration was determined through UV−Vis spectroscopy. A stock solution of mTHF was prepared in carbonate buffer. The stock was prepared in the range of 5 to 6 mM. A stock solution of dUMP was prepared in bidistilled water in the range of 10−12 mM. Peptide inhibitors were tested without incubation with hTS in […], at 25 °C. A 1 mL amount of assay buffer consisted of 50 mM TES, pH 7.4, containing 25 mM MgCl2, 6.5 mM HCHO, 1 mM EDTA, 75 mM β-mercaptoethanol (β-ME), 0.120 mM dUMP, and 0.060 mM mTHF. Following the addition of the enzyme (300 nM) and inhibitor mixture, the absorbance was monitored at 340 nm in a UV−Vis spectrophotometer for 3 min. In the control sample, an equal aliquot of enzyme alone was added. hTS activity inhibition percentages (I%) values were measured at 0.100−3000 µM concentration of inhibitor. […] The kinetic inhibition pattern was studied for compound 7 [12]. The inhibition values are expressed as mean ± SEM; n = 3.

Another data set concerns IGROV-1 cells. Description: Cytotoxicity, crystal violet cell growth assay, peptides transfected with SAINT-PhD. Type of data set: cell-based, human. The following applies: at 10 and 25 µM, ranking among the 10 cPs, SAINT-PhD delivery. How it is done:
The IGROV-1, A2780, and A2780/CP human ovarian cancer cell lines were grown as monolayer in RPMI 1640 medium containing 10% heat-inactivated fetal bovine serum and 50 µg/mL gentamycin sulfate (Euroclone, Devon, UK). Cultures were equilibrated with humidified 5% CO2 in air at 37 °C. The cDDP-resistant variant A2780/CP cell line, derived from the parent A2780 cell line, is about 10-fold resistant to cDDP and was developed by monthly exposure to cDDP, followed by chronic exposure to stepwise increases in cDDP concentration. All studies were performed in Mycoplasma negative cells, as routinely determined with the MycoAlert Mycoplasma detection kit (Lonza, Walkersville, MD, USA).
Treatment with each peptide was performed according to the standard transfection protocol of the SAINT-PhD delivery system (Synvolux Therapeutics, Leiden, Netherlands). Complexes of peptide (µg) with SAINT-PhD (µL) were prepared at appropriate ratios corresponding to the approximate µM concentrations indicated. For each protein sample, complexes were prepared as follows: for the treatment of a 24-well plate, the appropriate amount of each peptide was diluted in HBS, then SAINT-PhD was pipetted into the solution without vortexing; then, the mixture was incubated for 5 min at room temperature, and filled up to 500 µL with serum-free medium. The culture medium was aspirated from the cells, the SAINT-PhD/peptide complex was added to the wells and incubated 4 h (37 °C, 5% CO2). Afterward, complete RPMI was added to reach the appropriate volume for maintaining the cell culture for the duration of the experiments.
Cell growth was determined using a modified crystal violet assay. On selected days, the tissue culture medium was removed, and the cell monolayer fixed with methanol and stained with 0.2% crystal violet solution in 20% methanol for at least 30 min. After being washed several times with distilled water to remove excess dye, the cells were left to dry. The incorporated dye was solubilized in acidified isopropanol (1N HCl: 2-propanol, 1:10). After appropriate dilution, absorbance was determined spectrophotometrically at 540 nm. The extracted dye was proportional to cell biomass. The percentage of cytotoxicity was calculated by comparing the absorbance of cultures exposed to the drug to unexposed (control) cultures.

Data set [3] concerns the target T1, recombinant human thymidylate synthase (hTS). Briefly: hTS inhibition assay (spectrophotometric, absorbance at 340 nm). Type of data set: biochemical.

Experimental findings from article PMC6804113, “Cyclic Peptides Acting as Allosteric Inhibitors of Human Thymidylate Synthase and Cancer Cell Growth” (Molecules, 2019) are described below.

Read-outs that look alike come from different tables or passages of the source. Starred links: 1 amine or outer side, 2 acyl side, 3 side chain; linkers in the order of their positions; H or OH if unused. Positions of bridges follow the written chain, without caps; N, C: chain ends. Non-standard residues stand in square brackets, D forms with d. Residues, ends and D or L forms follow the SMILES beside them. Cysteamide = C(CS[*:3])N[*:1]

In general, inhibition refers to the share of the control response that was lost under treatment. As usually defined, the IC50 is the concentration at which inhibition is half-maximal.

T1 sequence (P04818 whole entry): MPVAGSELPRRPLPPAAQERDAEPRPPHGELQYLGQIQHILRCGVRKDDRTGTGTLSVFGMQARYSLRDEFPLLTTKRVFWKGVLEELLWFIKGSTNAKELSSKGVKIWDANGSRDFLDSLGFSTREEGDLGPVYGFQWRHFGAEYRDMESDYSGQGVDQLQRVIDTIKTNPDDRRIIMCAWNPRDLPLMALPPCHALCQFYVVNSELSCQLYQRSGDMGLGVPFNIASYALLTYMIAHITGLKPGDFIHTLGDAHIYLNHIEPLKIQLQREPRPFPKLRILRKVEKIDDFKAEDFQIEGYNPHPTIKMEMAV

In data set [1] (from H-Leu-Cys-Pro-Gln-Leu-Tyr-Gln-Cys-OH, 23-membered ring, 1.03 mM), `CC(C)C[C@@H]1NC(=O)[C@H](CCC(N)=O)NC(=O)[C@@H]2CCCN2C(=O)[C@@H](NC(=O)[C@@H](N)CC(C)C)CSSC[C@@H](C(=O)O)NC(=O)[C@H](CCC(N)=O)NC(=O)[C@H](Cc2ccc(O)cc2)NC1=O` [Leu-c[Cys-Pro-Gln-Leu-Tyr-Gln-Cys-]] registered a ring closure, yield after HPLC of 22%.
As to `CC(C)C[C@@H]1NC(=O)[C@@H](CCC(N)=O)NC(=O)[C@@H](NC(=O)[C@H](CO)NC(=O)[C@@H](N)CC(C)C)CSSC[C@@H](C(=O)O)NC(=O)[C@H](CCC(N)=O)NC(=O)[C@H](Cc2ccc(O)cc2)NC1=O` [Peptide 4, Leu-Ser-c[Cys-D-Gln-Leu-Tyr-Gln-Cys]] (H-LSC[dQ]LYQC-OH; disulfide 3-8), in data set [2], the “% inhibition of hTS” value was “inactive”. For the same compound, in the data set with IGROV-1 cells, the “cytotoxicity (in words)” value is “least active”.
Turning to `CC(C)C[C@@H]1NC(=O)[C@@H](CCC(N)=O)NC(=O)[C@@H](NC(=O)[C@H](CO)NC(=O)[C@@H](N)CC(C)C)CSSCCNC(=O)[C@H](CCCNC(=N)N)NC(=O)[C@H](CCC(N)=O)NC(=O)[C@H](Cc2ccc(O)cc2)NC1=O` [Peptide 3, Leu-Ser-c[Cys-D-Gln-Leu-Tyr-Gln-Arg-CAM]] (H-LSC[dQ]LYQR-Cysteamide; disulfide 3-C), the “% inhibition of hTS” value in data set [2] was “inactive”.
The compound `CC(C)C[C@@H]1NC(=O)[C@@H](CCC(N)=O)NC(=O)[C@@H](NC(=O)[C@H](CO)NC(=O)[C@@H](N)CC(C)C)CSSC[C@@H](C(=O)N[C@@H](CCCNC(=N)N)C(=O)O)NC(=O)[C@H](Cc2ccc(O)cc2)NC1=O` [Leu-Ser-c[Cys-D-Gln-Leu-Tyr-Cys-]Arg] showed a ring closure, yield after HPLC in data set [1] (from H-Leu-Ser-Cys-dGln-Leu-Tyr-Cys-Arg-OH, 17-membered ring, 1.01 mM) of 29%.
Consider `CC(C)C[C@@H]1NC(=O)[C@H](CCC(N)=O)NC(=O)[C@H](C)NC(=O)[C@@H](NC(=O)[C@@H](N)CC(C)C)CSSC[C@@H](C(=O)O)NC(=O)[C@H](CCC(N)=O)NC(=O)[C@H](Cc2ccc(O)cc2)NC1=O` [Leu-c[Cys-Ala-Gln-Leu-Tyr-Gln-Cys]], for which the ring closure, yield after HPLC in data set [1] (from H-Leu-Cys-Ala-Gln-Leu-Tyr-Gln-Cys-OH, 23-membered ring, 1.06 mM) came out at 30%.
Regarding `CC(C)C[C@@H]1NC(=O)[C@@H](CCC(N)=O)NC(=O)[C@@H](NC(=O)[C@H](CO)NC(=O)[C@@H](N)CC(C)C)CSSC[C@@H](C(=O)O)NC(=O)[C@H](CCC(N)=O)NC(=O)[C@H](Cc2ccc(O)cc2)NC1=O` [Leu-Ser-c[Cys-D-Gln-Leu-Tyr-Gln-Cys-]], the ring closure, yield after HPLC in data set [1] (from H-Leu-Ser-Cys-dGln-Leu-Tyr-Gln-Cys-OH, 20-membered ring, 1.04 mM) was found to be 18%.
As for `CC(C)C[C@@H]1NC(=O)[C@@H](CCC(N)=O)NC(=O)[C@@H](NC(=O)[C@H](CO)NC(=O)[C@@H](N)CC(C)C)CSSCCNC(=O)[C@H](CCCNC(=N)N)NC(=O)[C@H](CCC(N)=O)NC(=O)[C@H](Cc2ccc(O)cc2)NC1=O` [Leu-Ser-c[Cys-D-Gln-Leu-Tyr-Gln-Arg-CAM-]], in data set [1] (from H-Leu-Ser-Cys-dGln-Leu-Tyr-Gln-Arg-NHCH2CH2SH, 23-membered ring, 0.94 mM), the ring closure, yield after HPLC was determined as 13%.
On to `CC(C)C[C@@H]1NC(=O)[C@H](CCC(N)=O)NC(=O)[C@@H]2CCCN2C(=O)[C@@H](NC(=O)[C@@H](N)CC(C)C)CSSC[C@@H](C(=O)N[C@@H](CCC(N)=O)C(=O)N[C@@H](CCCNC(=N)N)C(=O)O)NC1=O` [Leu-c[Cys-Pro-Gln-Leu-Cys-]Gln-Arg], for which, in data set [1] (from H-Leu-Cys-Pro-Gln-Leu-Cys-Gln-Arg-OH, 17-membered ring, 1.04 mM), the ring closure, yield after HPLC was 25%.
For `CC(C)C[C@@H]1NC(=O)[C@H](CCC(N)=O)NC(=O)[C@@H](NC(=O)[C@H](CO)NC(=O)[C@@H](N)CC(C)C)CSSCCNC(=O)[C@H](CCCNC(=N)N)NC(=O)[C@H](CCC(N)=O)NC(=O)[C@H](Cc2ccc(O)cc2)NC1=O` [Peptide 1, Leu-Ser-c[Cys-Gln-Leu-Tyr-Gln-Arg-CAM]] (H-LSCQLYQR-Cysteamide; disulfide 3-C), the inhibition at 400 µM in data set [2] (at 400 µM and r.t. under stirring) was 25%. In data set [3] (room temperature (20–22 °C) under stirring, standard error ±20% of the value), the 50% inhibitory concentration (IC50) amounted to 2120 µM.
`CC(C)C[C@@H]1NC(=O)[C@@H](CCC(N)=O)NC(=O)[C@@H](NC(=O)[C@H](CO)NC(=O)[C@@H](N)CC(C)C)CSSC[C@@H](C(=O)N[C@@H](CCCNC(=N)N)C(=O)O)NC(=O)[C@H](Cc2ccc(O)cc2)NC1=O` [Peptide 5, Leu-Ser-c[Cys-D-Gln-Leu-Tyr-Cys]-Arg] (H-LSC[dQ]LYCR-OH; disulfide 3-7; N-terminus assumed): the “% inhibition of hTS” value was “N.I. at 500 µM and r.t. N.I. at 500 µM and 37 °C under stirring” in data set [2]; “N.I. at 500 µM and r.t. N.I. at 500 µM and 37 °C under stirring” in data set [3] (at 500 µM and 37 °C under stirring).
As for `CC(C)C[C@@H]1NC(=O)[C@H](CCC(N)=O)NC(=O)[C@@H]2CCCN2C(=O)[C@@H](NC(=O)[C@@H](N)CC(C)C)CSSC[C@@H](C(=O)N[C@@H](CCCNC(=N)N)C(=O)O)NC(=O)[C@H](Cc2ccc(O)cc2)NC1=O` [Leu-c[Cys-Pro-Gln-Leu-Tyr-Cys-]Arg], in data set [1] (from H-Leu-Cys-Pro-Gln-Leu-Tyr-Cys-Arg-OH, 20-membered ring, 1.0 mM), the ring closure, yield after HPLC was 18%.
`CC(C)C[C@@H]1NC(=O)[C@H](CCC(N)=O)NC(=O)[C@@H]2CCCN2C(=O)[C@H](CO)NC(=O)[C@@H](N)CSSC[C@@H](C(=O)O)NC(=O)[C@H](CCC(N)=O)NC(=O)[C@H](Cc2ccc(O)cc2)NC1=O` [c[Cys-Ser-Pro-Gln-Leu-Tyr-Gln-Cys]]: the ring closure, yield after HPLC in data set [1] (from H-Cys-Ser-Pro-Gln-Leu-Tyr-Gln-Cys-OH, 26-membered ring, 1.06 mM) was 25%.
For the compound `CC(C)C[C@@H]1NC(=O)[C@H](CCC(N)=O)NC(=O)[C@@H](NC(=O)[C@H](CO)NC(=O)[C@@H](N)CC(C)C)CSSCCNC(=O)[C@H](CCCNC(=N)N)NC(=O)[C@H](CCC(N)=O)NC(=O)[C@H](Cc2ccc(O)cc2)NC1=O` [Leu-Ser-c[Cys-Gln-Leu-Tyr-Gln-Arg-CAM-]], the ring closure, yield after HPLC in data set [1] (from H-Leu-Ser-Cys-Gln-Leu-Tyr-Gln-Arg-NHCH2CH2SH, 23-membered ring, 0.94 mM) amounted to 15%.
In the case of `CC(C)C[C@@H]1NC(=O)[C@H](CCC(N)=O)NC(=O)[C@@H]2CCCN2C(=O)[C@@H](NC(=O)[C@@H](N)CC(C)C)CSSCCNC(=O)[C@H](CCCNC(=N)N)NC(=O)[C@H](CCC(N)=O)NC(=O)[C@H](Cc2ccc(O)cc2)NC1=O` [Leu-c[Cys-Pro-Gln-Leu-Tyr-Gln-Arg-CAM]], the ring closure, yield after HPLC in data set [1] (from H-Leu-Cys-Pro-Gln-Leu-Tyr-Gln-Arg-NHCH2CH2SH, 26-membered ring, 0.93 mM) turned out to be 10%.
